Results reported in patent US20230073512A1, “MODULATORS OF CULLIN 3 ADAPTOR KBTBD4 AS ANTI-CANCER COMPOUNDS” (UNIVERSITE DE MONTREAL, priority 2019, published 2023).
Read-outs that look alike come from different tables or passages of the source. Values belong to the compound of their own block, whether it stands above or below them.

Assays:
UT-7 = test: Cell proliferation of cancerous cell lines; format: cell-based; conditions: Homo sapiens, UT7; UT-7 cell line; read-out: Antineoplastic effect on cell proliferation, IC50
AML3 = test: Cell proliferation of cancerous cell lines; format: cell-based
LY-1 = test: Cell proliferation of cancerous cell lines; format: cell-based; conditions: Ly1; LY-1 cell line; read-out: Antineoplastic effect on cell proliferation, IC50
KBM7 = test: Cell proliferation of cancerous cell lines; format: cell-based; conditions: KBM-7; KBM7 cell line; read-out: Antineoplastic effect on cell proliferation, IC50
MOLM-13 = test: Cell proliferation of cancerous cell lines; format: cell-based; conditions: Homo sapiens; MOLM-13 cell line; read-out: Antineoplastic effect on cell proliferation, IC50
KG1 = test: Cell proliferation of cancerous cell lines; format: cell-based; conditions: Homo sapiens, KG-1; KG1 cell line; read-out: Antineoplastic effect on cell proliferation, IC50
KU-812 = test: Cell proliferation of cancerous cell lines; format: cell-based; conditions: Homo sapiens, KU812; KU-812 cell line; read-out: Antineoplastic effect on cell proliferation, IC50
CB = test: Cell proliferation, CB sample of Table 2; conditions: read-out: Antineoplastic effect on cell proliferation, IC50
Z-138 = test: Cell proliferation of cancerous cell lines; format: cell-based; conditions: Homo sapiens; Z-138 cell line; read-out: Antineoplastic effect on cell proliferation, IC50
HL-60 = test: Cell proliferation of cancerous cell lines; format: cell-based; conditions: Homo sapiens; HL-60 cell line; read-out: Antineoplastic effect on cell proliferation, IC50
in vivo = conditions: mouse
Procedure: (§1) PK assays were performed in mice (n=3). […] The following pharmacokinetic parameters were calculated.
(§2) The compounds were orally administered at 20 mg/kg and plasma samples were collected at 15, 30 minutes and 1, 2, 4, 6 and 8 hours after administration. The following pharmacokinetic parameters were calculated.

MUTZ-8 = test: Cell proliferation of cancerous cell lines; format: cell-based; conditions: MUTZ-8 cell line; read-out: Antineoplastic effect on cell proliferation, IC50
KG1a = test: Cell proliferation of cancerous cell lines; format: cell-based; conditions: Homo sapiens, KG-1a; KG1a cell line; read-out: Antineoplastic effect on cell proliferation, IC50
NB-4 = test: Cell proliferation of cancerous cell lines; format: cell-based; conditions: Homo sapiens; NB-4 cell line; read-out: Antineoplastic effect on cell proliferation, IC50
AML5 = test: Cell proliferation of cancerous cell lines; format: cell-based; conditions: AML5 cell line; read-out: Antineoplastic effect on cell proliferation, IC50
AML samples = test: Cell proliferation of cancerous samples from patients
MUTZ-2 = test: Cell proliferation of cancerous cell lines; format: cell-based; conditions: MUTZ-2 cell line; read-out: Antineoplastic effect on cell proliferation, IC50
SKNO = test: Cell proliferation of cancerous cell lines; format: cell-based; conditions: SKNO cell line; read-out: Antineoplastic effect on cell proliferation, IC50
MonoMac = test: Cell proliferation of cancerous cell lines; format: cell-based; conditions: MonoMac cell line; read-out: Antineoplastic effect on cell proliferation, IC50
AML4 = test: Cell proliferation of cancerous cell lines; format: cell-based; conditions: AML4 cell line; read-out: Antineoplastic effect on cell proliferation, IC50
EOL1 = test: Cell proliferation of cancerous cell lines; format: cell-based; conditions: Homo sapiens; EOL1 cell line; read-out: Antineoplastic effect on cell proliferation, IC50
[1] = PK assays in mice, intravenous and oral
Procedure: as §1, §2

[2] = orally administered at 20 mg/kg
[3] = AML3, read-out: Antineoplastic effect of tested compounds on cell proliferation of cancerous AML3 cells, IC50

IC50 (UT-7): > 10000 nM
IC50 (AML3; AML3 cell line, read-out: Antineoplastic effect on cell proliferation, IC50): 1000 to 10000 nM
IC50 (LY-1): > 10000 nM
IC50 (KBM7): > 10000 nM
IC50 (MOLM-13): 250 to 1000 nM
IC50 (KG1): 1000 to 10000 nM
IC50 (KU-812): 1000 to 10000 nM
IC50 (Z-138): 1000 to 10000 nM
IC50 (HL-60): 1000 to 10000 nM
bioavailability (in vivo; female, po, 20 mg/kg): 39%
bioavailability (in vivo; male, po, 20 mg/kg): 31%
Vd (in vivo; iv, 1 mg/kg): 14.3 L/kg
clearance (in vivo; iv, 1 mg/kg): 109 mL/min/kg
half-life (in vivo; iv, 1 mg/kg): 1.9 h
AUC (in vivo; po, 20 mg/kg): 2.45 µM·h
Cmax (in vivo; po, 20 mg/kg): 200 nM
Tmax (in vivo; po, 20 mg/kg): 4 h
IC50 (MUTZ-8): > 10000 nM
IC50 (KG1a): 1000 to 10000 nM
IC50 (NB-4): 1000 to 10000 nM
IC50 (AML5): 1000 to 10000 nM
IC50 (AML samples; read-out: Antineoplastic effect on cell proliferation, IC50, AML sample 04H063): 1000 to 10000 nM
IC50 (AML samples; read-out: Antineoplastic effect on cell proliferation, IC50, AML sample 05H094): 1000 to 10000 nM
IC50 (AML samples; read-out: Antineoplastic effect on cell proliferation, IC50, AML sample 05H149): 1000 to 10000 nM
IC50 (AML samples; read-out: Antineoplastic effect on cell proliferation, IC50, AML sample 06H045): 1000 to 10000 nM
IC50 (AML samples; read-out: Antineoplastic effect on cell proliferation, IC50, AML sample 06H088): > 10000 nM
IC50 (AML samples; read-out: Antineoplastic effect on cell proliferation, IC50, AML sample 06H117): 1000 to 10000 nM
IC50 (AML samples; read-out: Antineoplastic effect on cell proliferation, IC50, AML sample 07H005): 1000 to 10000 nM
IC50 (AML samples; read-out: Antineoplastic effect on cell proliferation, IC50, AML sample 07H038): 1000 to 10000 nM
IC50 (AML samples; read-out: Antineoplastic effect on cell proliferation, IC50, AML sample 07H045): > 10000 nM
IC50 (AML samples; read-out: Antineoplastic effect on cell proliferation, IC50, AML sample 07H125): 1000 to 10000 nM
IC50 (AML samples; read-out: Antineoplastic effect on cell proliferation, IC50, AML sample 07H135): 1000 to 10000 nM
IC50 (AML samples; read-out: Antineoplastic effect on cell proliferation, IC50, AML sample 07H151): > 10000 nM
IC50 (AML samples; read-out: Antineoplastic effect on cell proliferation, IC50, AML sample 08H018): > 10000 nM
IC50 (AML samples; read-out: Antineoplastic effect on cell proliferation, IC50, AML sample 09H010): 1000 to 10000 nM
IC50 (AML samples; read-out: Antineoplastic effect on cell proliferation, IC50, AML sample 09H046): > 10000 nM
IC50 (AML samples; read-out: Antineoplastic effect on cell proliferation, IC50, AML sample 09H079): 1000 to 10000 nM
IC50 (AML samples; read-out: Antineoplastic effect on cell proliferation, IC50, AML sample 09H115): 1000 to 10000 nM
IC50 (AML samples; read-out: Antineoplastic effect on cell proliferation, IC50, AML sample 10H022): 250 to 1000 nM
IC50 (AML samples; read-out: Antineoplastic effect on cell proliferation, IC50, AML sample 10H127): 1000 to 10000 nM
IC50 (AML samples; read-out: Antineoplastic effect on cell proliferation, IC50, AML sample 11H002): 1000 to 10000 nM
IC50 (AML samples; read-out: Antineoplastic effect on cell proliferation, IC50, AML sample 11H046): 250 to 1000 nM
IC50 (AML samples; read-out: Antineoplastic effect on cell proliferation, IC50, AML sample 11H103): 1000 to 10000 nM
IC50 (AML samples; read-out: Antineoplastic effect on cell proliferation, IC50, AML sample 12H045): 1000 to 10000 nM
IC50 (AML samples; read-out: Antineoplastic effect on cell proliferation, IC50, AML sample 12H058): 1000 to 10000 nM
IC50 (AML samples; read-out: Antineoplastic effect on cell proliferation, IC50, AML sample 12H096): > 10000 nM
IC50 (AML samples; read-out: Antineoplastic effect on cell proliferation, IC50, AML sample 12H106): > 10000 nM
IC50 (AML samples; read-out: Antineoplastic effect on cell proliferation, IC50, AML sample 12H151): 1000 to 10000 nM
IC50 (AML samples; read-out: Antineoplastic effect on cell proliferation, IC50, AML sample 13H100): 1000 to 10000 nM
IC50 (AML samples; read-out: Antineoplastic effect on cell proliferation, IC50, AML sample 13H150): 1000 to 10000 nM
IC50 (MUTZ-2): 1000 to 10000 nM
IC50 (SKNO): 1000 to 10000 nM
IC50 (MonoMac): 1000 to 10000 nM
IC50 (AML4): 250 to 1000 nM
IC50 (EOL1): 250 to 1000 nM
Structure (SMILES): Cn1nnc(-c2ccc3c(c2)[nH]c2ncnc(NCCCN4CCCCC4)c23)n1 [UM681]
IC50 (CB): 1000 to 10000 nM

area under the curve (AUC) [1, 2]: 1.2 µM·h
bioavailability (% F) [1, 2]: 19%
maximal time (tmax) [1, 2]: 0.8 h
Cmax ([1]; read-out: maximal concentration (Cmax), orally administered at 20 mg/kg): 200 nM
Structure (SMILES): COC(=O)c1ccc2c(c1)[nH]c1ncnc(NCCCN3CCCCC3)c12 [UM729]

IC50 (AML3; [3]): 1000 to 2000 nM
Structure (SMILES): Cn1nnc(-c2ccc3c(c2)[nH]c2ncnc(NCCCN4CCCCC4)c23)n1 [drawing 53]

IC50 (AML3; [3]): 2000 to 5000 nM
Structure (SMILES): COC(=O)c1ccc2[nH]c3nc(Cc4ccccc4)nc(NCCCN4CCCCC4)c3c2c1 [drawing 103]
